Experiments:
5xFAD mice = experiment: BT2 daily ip injection for one month in 5xFAD mice; assay type: in vivo
From the text: These transgenic mice develop amyloid plaques and neuroinflammation at as early as 1.5-2 months of age^7, thus allowing the inventors to investigate the role of BCAAs in AD-related brain pathology when they are young. […] Next, the inventors examined amyloid and Tau pathology in the cortex.

BCKDH kinase = conditions: cited from earlier work
plasma BCAAs = conditions: mice; cited from earlier work
[1] = in hepatocytes; cited from earlier work
[2] = CD-1 mice, in vivo pharmacokinetics study; cited from earlier work

Molecule | increase of tyrosine hydroxylase (TH) protein level (5xFAD mice; 5xFAD mice, p=0.07) [%] | blood glucose (5xFAD mice; BT2-treated vs vehicle-treated 5xFAD mice) | Aβ-42 level (5xFAD mice; cortex, 5xFAD mice) | elevated Aβ-degrading enzyme IDE (5xFAD mice; cortex, 5xFAD mice) [%] | increase of DA (5xFAD mice; cortex, BT2-treated 5xFAD mice) [%] | increase of DOPAC (5xFAD mice; cortex, BT2-treated 5xFAD mice) [%] | GSK3β (5xFAD mice; cortex, after BT2 treatment) | BACE1 (β-secretase) (5xFAD mice; hippocampus, 5xFAD mice) | NE level (5xFAD mice; hippocampus, 5xFAD mice) | mRNA of NF-κB (inflammation) (5xFAD mice; hippocampus, 5xFAD mice) | mRNA of PERK (ER stress) (5xFAD mice; hippocampus, 5xFAD mice) | higher 5-HT (5xFAD mice; hippocampus, after BT2 treatment, p<0.05) [%] | higher DA (5xFAD mice; hippocampus, after BT2 treatment, p=0.08) [%] | inhibit BCKDH kinase (BCKDH kinase) | plasma BCAAs (plasma BCAAs) | Half-life [1] [h] | clearance rate [2] [mL/min]
O=C(O)c1sc2cc(Cl)ccc2c1Cl [BT2, 3,6-dichlorobenzo[b]thiophene-2-carboxylic acid] | ~400 | markedly decrease | completely rescued | 70 | 180 | 300 | significantly reduced | markedly lowered | fully restored | decreased | decreased | 50 | 40 | effectively inhibit | lowering plasma BCAAs |  | 
(S)-α-chloro-phenylpropionic acid [(S)-CPP] |  |  |  |  |  |  |  |  |  |  |  |  |  | effectively inhibit | lowering plasma BCAAs | ~7 | 0.113
